Experimental data reported in ChEMBL document CHEMBL3044708, “The trifluoromethyl transformation synthesis, crystal structure and insecticidal activities of novel 2-pyrrolecarboxamide and 2-pyrrolecarboxlate” (2012).

Assays:
Format in all cases: functional
Mythimna separata [1] = test: Insecticidal activity against Mythimna separata (Oriental armyworm) assessed as mortality at 200 mg/L
Tetranychus cinnabarinus [2] = test: Acaricidal activity against Tetranychus cinnabarinus (carmine spider mite) assessed as mortality at 200 mg/L
Tetranychus cinnabarinus [3] = test: Acaricidal activity against Tetranychus cinnabarinus (carmine spider mite) eggs assessed as mortality at 200 mg/L; conditions: Egg
Tetranychus cinnabarinus [4] = test: Acaricidal activity against Tetranychus cinnabarinus (carmine spider mite) larvae assessed as mortality at 200 mg/L
Mythimna separata [5] = test: Insecticidal activity against Mythimna separata (Oriental armyworm) assessed as mortality at 25 mg/L
Mythimna separata [6] = test: Insecticidal activity against Mythimna separata (Oriental armyworm) assessed as mortality at 50 mg/L
Mythimna separata [7] = test: Insecticidal activity against Mythimna separata (Oriental armyworm) assessed as mortality at 100 mg/L
Tetranychus cinnabarinus [8] = test: Acaricidal activity against Tetranychus cinnabarinus (carmine spider mite) assessed as mortality at 100 mg/L
Tetranychus cinnabarinus [9] = test: Acaricidal activity against Tetranychus cinnabarinus (carmine spider mite) eggs assessed as mortality at 100 mg/L; conditions: Egg
Tetranychus cinnabarinus [10] = test: Acaricidal activity against Tetranychus cinnabarinus (carmine spider mite) larvae assessed as mortality at 100 mg/L

| SMILES | mortality at 200 µg/mL (Mythimna separata [1]) [%] | mortality at 200 µg/mL (Tetranychus cinnabarinus [2]) [%] | mortality at 200 µg/mL (Tetranychus cinnabarinus [3]) [%] | mortality at 200 µg/mL (Tetranychus cinnabarinus [4]) [%] | mortality at 25 µg/mL (Mythimna separata [5]) [%] | mortality at 50 µg/mL (Mythimna separata [6]) [%] | mortality at 100 µg/mL (Mythimna separata [7]) [%] | mortality at 100 µg/mL (Tetranychus cinnabarinus [8]) [%] | mortality at 100 µg/mL (Tetranychus cinnabarinus [9]) [%] | mortality at 100 µg/mL (Tetranychus cinnabarinus [10]) [%] |
| --- | --- | --- | --- | --- | --- | --- | --- | --- | --- | --- |
| N#Cc1cc(C(=O)Nc2ccc(C(F)(F)F)cc2)[nH]c1-c1ccc(Br)cc1 | 0 | 0 | 0 | 0 | – | – | – | – | – | – |
| N#Cc1cc(C(=O)Nc2ccc(C(F)(F)F)cc2)[nH]c1-c1ccc(Cl)cc1 | 0 | 0 | 0 | 0 | – | – | – | – | – | – |
| N#Cc1c(-c2ccc(Cl)cc2)[nH]c(C(=O)Nc2ccc(C(F)(F)F)cc2)c1Br | 0 | 0 | 0 | 0 | – | – | – | – | – | – |
| N#Cc1c(-c2ccc(Cl)cc2)[nH]c(C(=O)NC2CCCCC2)c1Br | 80 | 0 | 0 | 0 | – | – | – | – | – | – |
| CCN(CC)C(=O)c1[nH]c(-c2ccc(Cl)cc2)c(C#N)c1Br | 0 | 0 | 0 | 0 | – | – | – | – | – | – |
| N#Cc1c(-c2ccc(Cl)cc2)[nH]c(C(=O)NCc2ccccc2)c1Br | 0 | 0 | 0 | 0 | – | – | – | – | – | – |
| COC(=O)c1[nH]c(-c2ccc(Cl)cc2)c(C#N)c1Br | 100 | 60 | 0 | 40 | 0 | 40 | 100 | – | – | – |
| CCOC(=O)c1[nH]c(-c2ccc(Cl)cc2)c(C#N)c1Br | 100 | 78 | 81 | 76 | 0 | 60 | 100 | 40 | 54 | 52 |
| N#Cc1c(-c2ccc(Cl)cc2)[nH]c(C(=O)OCc2ccccc2)c1Br | 100 | 0 | 0 | 0 | 0 | 100 | 100 | – | – | – |
| N#Cc1c(-c2ccc(Cl)cc2)[nH]c(C(F)(F)F)c1Br | 100 | 100 | 100 | 100 | 100 | 100 | 100 | 100 | 100 | 100 |
| CCOCn1c(-c2ccc(Cl)cc2)c(C#N)c(Br)c1C(F)(F)F [CHLORFENAPYR] | 100 | 100 | 100 | 100 | 100 | 100 | 100 | 100 | 100 | 100 |
